# Laboratory results published in PubChem BioAssay AID330 (DTP/NCI, 2004).
# Values joined by “and” are separate entries in the source; they are usually repeats but may differ in a detail not shown here. Identical values can stand only once. Toxic doses and inconclusive results are not listed. Square brackets hold non-standard residues; d marks the D form. Peptide text beside a SMILES is read from it. * marks the point of attachment. ξ: configuration not given here. Cbz = O=C(OCc1ccccc1)*; OBn = c1ccc(CO*)cc1; ξS = NC(CO)C(=O)O
# System: P388 leukemia ip, CD2F1 mice, survival T/C
# Experiment: NCI In Vivo Anticancer Drug Screen. Data for tumor model P388 Leukemia (intraperitoneal) in CD2F1 (CDF1) mice
# Settings: endpoint: median survival time, higher = longer survival
# Summary of the method: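 Mice carrying the transplanted tumor received test compound or vehicle. Survival was recorded in each group, and the value is the treated-group measurement divided by that of the vehicle-treated control group.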
# [1] = dose: 50.0 mg/kg/injection, schedule: Q01DX009 (ip), vehicle: Klucel (hydroxypropylcellulose) (HPC)
# [2] = dose: 100.0 mg/kg/injection, schedule: Q01DX009 (ip), vehicle: Klucel (hydroxypropylcellulose) (HPC)
# [3] = dose: 200.0 mg/kg/injection, schedule: Q01DX009 (ip), vehicle: Klucel (hydroxypropylcellulose) (HPC)
# [4] = dose: 100.0 mg/kg/injection, schedule: Q04DX003 (ip), vehicle: saline with Tween-80
# [5] = dose: 200.0 mg/kg/injection, schedule: Q04DX003 (ip), vehicle: saline with Tween-80
# [6] = dose: 50.0 mg/kg/injection, schedule: Q01DX009 (ip), vehicle: saline with Tween-80
# [7] = dose: 100.0 mg/kg/injection, schedule: Q01DX009 (ip), vehicle: saline with Tween-80
# [8] = dose: 50.0 mg/kg/injection, schedule: Q01DX009 (ip), vehicle: saline
# [9] = dose: 100.0 mg/kg/injection, schedule: Q01DX009 (ip), vehicle: saline
# [10] = dose: 50.0 mg/kg/injection, schedule: Q01DX005 (ip), vehicle: saline with Tween-80
# [11] = dose: 100.0 mg/kg/injection, schedule: Q01DX005 (ip), vehicle: saline with Tween-80
# [12] = dose: 200.0 mg/kg/injection, schedule: Q01DX005 (ip), vehicle: saline with Tween-80
# [13] = dose: 50.0 mg/kg/injection, schedule: Q01DX005 (ip), vehicle: Klucel (hydroxypropylcellulose) (HPC)
# [14] = dose: 100.0 mg/kg/injection, schedule: Q01DX005 (ip), vehicle: Klucel (hydroxypropylcellulose) (HPC)
# [15] = dose: 200.0 mg/kg/injection, schedule: Q01DX005 (ip), vehicle: Klucel (hydroxypropylcellulose) (HPC)
compound,measurement,setting,value
Cc1cc(C)n(C(N)=NC(=O)c2ccc([N+](=O)[O-])cc2)n1,T/C,[1],99 % of control
same,T/C,[2],101 % of control
same,T/C,[3],106 % of control
OC(CC1(O)C(F)(F)C(F)(F)C1(F)F)c1ccccc1 (stereo not given),T/C,[4],100 % of control
same,T/C,[5],90 % of control
CP1(=O)CCC2=C1CCCC2 (stereo not given),T/C,[4],105 % of control
same,T/C,[5],107 % of control
same,T/C,"dose: 400.0 mg/kg/injection, schedule: Q04DX003 (ip), vehicle: saline with Tween-80",104 % of control
COc1cc2c(c(OC)c1OC)-c1cc3c(cc1C(OC(C)=O)C1COC(=O)C1C2)OCO3 (stereo not given),T/C,"dose: 0.5 mg/kg/injection, schedule: Q04DX002 (ip), vehicle: acetone",97 % of control and 104 % of control
same,T/C,"dose: 1.0 mg/kg/injection, schedule: Q04DX002 (ip), vehicle: acetone",102 % of control and 94 % of control
same,T/C,"dose: 2.0 mg/kg/injection, schedule: Q04DX002 (ip), vehicle: acetone",97 % of control and 104 % of control
Cc1c2oc3c(C)ccc(C(=O)NCCCN4CCN(C)CC4)c3nc-2c(C(=O)NCCCN2CCN(C)CC2)c(N)c1=O,T/C,"dose: 6.25 mg/kg/injection, schedule: Q04DX003 (ip), vehicle: saline with Tween-80",106 % of control
same,T/C,"dose: 12.5 mg/kg/injection, schedule: Q04DX003 (ip), vehicle: saline with Tween-80",104 % of control
same,T/C,"dose: 25.0 mg/kg/injection, schedule: Q04DX003 (ip), vehicle: saline with Tween-80",114 % of control and 117 % of control
same,T/C,[4],123 % of control
O=C1C(F)=C(N2CC2)C(=O)C(F)=C1N1CC1,T/C,"dose: 1.56 mg/kg/injection, schedule: Q01DX009 (ip), vehicle: saline",115 % of control
same,T/C,"dose: 3.12 mg/kg/injection, schedule: Q01DX009 (ip), vehicle: saline",114 % of control
same,T/C,"dose: 6.25 mg/kg/injection, schedule: Q01DX009 (ip), vehicle: saline",150 % of control
COC12c3c(C)cc(O)c4c(=O)occ(c34)C(=O)C1C13COC(=O)c4c(O)cc(C)c(c41)C(=O)C2C3OC(C)=O (stereo not given),T/C,"dose: 25.0 mg/kg/injection, schedule: Q01DX009 (ip), vehicle: saline with Tween-80",107 % of control and 119 % of control
same,T/C,[6],111 % of control and 122 % of control
same,T/C,[7],103 % of control and 120 % of control and 123 % of control
NCCCNCCCCNC(=O)C(O)NC(=O)CCCCCCN=C(N)N (stereo not given),T/C,"dose: 4.4 mg/kg/injection, schedule: Q01DX009 (ip), vehicle: other",193 % of control and 195 % of control and 198 % of control
same,T/C,"dose: 4.4 mg/kg/injection, schedule: Q01DX009 (ip), vehicle: saline",193 % of control and 194 % of control and 200 % of control
same,T/C,"dose: 4.5 mg/kg/injection, schedule: Q01DX009 (ip), vehicle: other",193 % of control
same,T/C,"dose: 4.5 mg/kg/injection, schedule: Q01DX009 (ip), vehicle: saline",188 % of control and 196 % of control
same,T/C,"dose: 6.25 mg/kg/injection, schedule: Q01DX005 (ip), vehicle: saline",159 % of control
same,T/C,"dose: 12.5 mg/kg/injection, schedule: Q01DX005 (ip), vehicle: saline",165 % of control and 172 % of control
same,T/C,"dose: 34.0 mg/kg/injection, schedule: Q01DX009 (ip), vehicle: saline",205 % of control
O=S(=O)(O)c1ccc2cc3nn(-c4ccc(/C=C/c5ccc(-n6nc7cc8ccc(S(=O)(=O)O)cc8cc7n6)cc5S(=O)(=O)O)c(S(=O)(=O)O)c4)nc3cc2c1,T/C,[8],97 % of control
same,T/C,[9],97 % of control
FC(F)(F)C(Cl)(c1ccc(Cl)cc1)c1ccc(Cl)cc1,T/C,"dose: 50.0 mg/kg/injection, schedule: Q01DX005 (sc), vehicle: olive oil, sesame oil, peanut oil",96 % of control
same,T/C,"dose: 100.0 mg/kg/injection, schedule: Q01DX005 (sc), vehicle: olive oil, sesame oil, peanut oil",96 % of control
same,T/C,"dose: 200.0 mg/kg/injection, schedule: Q01DX005 (sc), vehicle: olive oil, sesame oil, peanut oil",95 % of control
same,T/C,"dose: 400.0 mg/kg/injection, schedule: Q01DX005 (sc), vehicle: olive oil, sesame oil, peanut oil",100 % of control
Cc1ccc(C)c(NC(=O)/C=N/O)c1,T/C,[10],98 % of control
same,T/C,[11],110 % of control
same,T/C,[12],105 % of control
CC(=NCCCCN=C(C)c1cc(C)ccc1O)c1cc(C)ccc1O,T/C,[13],98 % of control
same,T/C,[14],100 % of control
same,T/C,[15],103 % of control
CCOC(=O)C1CCc2ccc(OC)c(OC)c2C1 (stereo not given),T/C,"dose: 12.5 mg/kg/injection, schedule: Q01DX009 (ip), vehicle: other",100 % of control
same,T/C,"dose: 25.0 mg/kg/injection, schedule: Q01DX009 (ip), vehicle: other",97 % of control
same,T/C,"dose: 50.0 mg/kg/injection, schedule: Q01DX009 (ip), vehicle: other",105 % of control
same,T/C,"dose: 100.0 mg/kg/injection, schedule: Q01DX009 (ip), vehicle: other",100 % of control
same,T/C,"dose: 200.0 mg/kg/injection, schedule: Q01DX009 (ip), vehicle: other",110 % of control
CC(CN(C)C)C(=O)/C=C/c1ccc(F)c(F)c1 (stereo not given),T/C,"dose: 60.0 mg/kg/injection, schedule: Q01DX005 (ip), vehicle: saline",100 % of control and 103 % of control
same,T/C,"dose: 120.0 mg/kg/injection, schedule: Q01DX005 (ip), vehicle: saline",116 % of control and 124 % of control
COC(=O)[C@@]12OC[C@]34C([C@@H](O)C1O)[C@@]1(C)CC(=O)C(O)=C(C)C1C[C@H]3OC(=O)[C@H](OC(=O)c1cccc(Cl)c1)[C@H]42 (stereo not given in full),T/C,"dose: 0.25 mg/kg/injection, schedule: Q01DX005 (ip), vehicle: DMSO",119 % of control
same,T/C,"dose: 0.5 mg/kg/injection, schedule: Q01DX005 (ip), vehicle: DMSO",112 % of control
same,T/C,"dose: 1.0 mg/kg/injection, schedule: Q01DX005 (ip), vehicle: DMSO",121 % of control and 93 % of control
same,T/C,"dose: 2.0 mg/kg/injection, schedule: Q01DX005 (ip), vehicle: DMSO",109 % of control and 110 % of control
same,T/C,"dose: 4.0 mg/kg/injection, schedule: Q01DX005 (ip), vehicle: DMSO",105 % of control
same,T/C,"dose: 8.0 mg/kg/injection, schedule: Q01DX005 (ip), vehicle: DMSO",101 % of control and 104 % of control
same,T/C,"dose: 16.0 mg/kg/injection, schedule: Q01DX005 (ip), vehicle: DMSO",111 % of control
same,T/C,"dose: 32.0 mg/kg/injection, schedule: Q01DX005 (ip), vehicle: DMSO",108 % of control
O=C1C=CC2(C=C1)CCCCC2,T/C,"dose: 50.0 mg/kg/injection, schedule: Q01DX001 (ip), vehicle: Klucel (hydroxypropylcellulose) (HPC)",91 % of control
same,T/C,"dose: 100.0 mg/kg/injection, schedule: Q01DX001 (ip), vehicle: Klucel (hydroxypropylcellulose) (HPC)",101 % of control
CC1(C)[C@@H]2CC[C@H](OC(=O)/C=C/c3ccccc3)[C@@H]2[C@@H]2CC[C@H]3O[C@]321,T/C,"dose: 80.0 mg/kg/injection, schedule: Q01DX001 (ip), vehicle: Klucel (hydroxypropylcellulose) (HPC)",109 % of control
same,T/C,"dose: 160.0 mg/kg/injection, schedule: Q01DX001 (ip), vehicle: Klucel (hydroxypropylcellulose) (HPC)",102 % of control
same,T/C,"dose: 320.0 mg/kg/injection, schedule: Q01DX001 (ip), vehicle: Klucel (hydroxypropylcellulose) (HPC)",100 % of control
O=C1NN=C2CCCCCCCCCCC12Cl (stereo not given),T/C,[6],108 % of control
same,T/C,[7],106 % of control
same,T/C,"dose: 200.0 mg/kg/injection, schedule: Q01DX009 (ip), vehicle: saline with Tween-80",106 % of control
FC(F)(F)C(OCC1CO1)(c1ccccc1)C(F)(F)F (stereo not given),T/C,[1],89 % of control
same,T/C,[2],97 % of control
same,T/C,[3],97 % of control
CCCN(CCC)CN(CCC)CCC,T/C,[8],106 % of control
same,T/C,[9],105 % of control
N#Cc1c2ccc(N)cc2nc2cc(N)ccc12,T/C,"dose: 60.0 mg/kg/injection, schedule: Q01DX005 (ip), vehicle: Klucel (hydroxypropylcellulose) (HPC)",100 % of control
same,T/C,"dose: 120.0 mg/kg/injection, schedule: Q01DX005 (ip), vehicle: Klucel (hydroxypropylcellulose) (HPC)",105 % of control
same,T/C,"dose: 240.0 mg/kg/injection, schedule: Q01DX005 (ip), vehicle: Klucel (hydroxypropylcellulose) (HPC)",118 % of control
Cc1ccc2nc3c(nc2c1)n(-c1ccccc1)c(=O)n3-c1cccc(Cl)c1,T/C,[10],90 % of control
same,T/C,[11],100 % of control
same,T/C,[12],101 % of control
COc1cc([N+](=O)[O-])ccc1N=Cc1cccs1,T/C,[8],97 % of control
same,T/C,[9],93 % of control
same,T/C,"dose: 200.0 mg/kg/injection, schedule: Q01DX009 (ip), vehicle: saline",101 % of control
O=C(CNC(=O)C(CO)NC(=O)OCc1ccccc1)NCC(=O)OCc1ccccc1 (stereo not drawn) (Cbz-[ξS]-Gly-Gly-OBn),T/C,[13],101 % of control
same,T/C,[14],99 % of control
same,T/C,[15],97 % of control
